Source: patent publication US20240398737A1, “FUNCTIONALIZED LONG-CHAIN HYDROCARBON MONO- AND DI-CARBOXYLIC ACIDS AND DERIVATIVES THEREOF, AND THEIR USE FOR THE PREVENTION OR TREATMENT OF DISEASE” (Espervita Therapeutics, Inc., priority 2021, published 2024)
Entries after “also recorded” stand apart in the source; their conditions may differ.

Legend:
ERK7/MAPK15 = ERK7/MAPK15 (Homo sapiens (Human), UniProt Q8TD08); test: Wild type kinase screen: ERK7/MAPK15; assay type: biochemical; conditions: compound at 10 μM, 10 μM ATP, Data 1 and Data 2 duplicates
PIM3 = PIM3 (Homo sapiens (Human), UniProt Q86V86); test: Wild type kinase screen: PIM3; assay type: biochemical; conditions: compound at 10 μM, 10 μM ATP, Data 1 and Data 2 duplicates
[1] = test system: Mouse primary hepatocytes; test: 14C-acetate incorporation into total lipids in mouse primary hepatocytes; assay type: cell-based; conditions: incorporation of 14C-acetate in primary mouse hepatocyte total lipids, 4 hours, 100 μM
Method: After perfusion, collagen digested liver cells were re-suspended in William's E media (11 mM glucose) (Gibco) supplemented with 10% fetal bovine serum (FBS) (Gibco), 2 mM L-glutamine (Gibco) and 1% Antibiotic-Antimycotic (Gibco) mixture and seeded in white opaque 96-well plates. On the following day, the cells were serum-starved for 2 hours, then treated with 0 μM, 0.1 μM, 0.3 μM, 0.5 μM, 1 μM, 3 μM, 10 μM, and 100 μM of Compound I-32, Compound I-1, Compound III-1 or Reference Compound (e.g., any of Compounds A-E or bempedoic acid) in the presence of ^14C-Acetate (1 μCi/ml, PerkinElmer). Each of Compound I-32, Compound I-1, Compound III-1, and Reference Compound was solubilized in 100% DMSO to a final concentration of 100 mM stock solution. In the experimental condition, the stock solution was diluted in serum free media (William's E media (11 mM glucose) (Gibco), 2 mM L-glutamine (Gibco) and 1% Antibiotic-Antimycotic) to yield the desired concentration of each compound. […] After 4 hours of treatment, the plates were washed two times with PBS (×1) and 100 μL microscint fluid (Microscint 0, part #601361) was added in each well. Plates were wrapped with aluminum foil and were shaken at 250 rpm for 2 h. After 2 h of shaking, ^14C incorporation into lipid was determined by liquid scintillation counting using a TopCount NXT Microplate Scintillation and Luminescence Counter (Perkin Elmer).
The effects of Compound I-32, Compound I-1, and Compound III-1 on mouse primary hepatocyte lipogenesis are represented in Table 13. Each Compound was assayed at a concentration of 0 μM (vehicle control), 0.1 μM, 0.3 μM, 0.5 μM, 1 μM, 3 μM, 10 μM, and 100 μM, unless otherwise noted. Statistically significant inhibition was determined by one-way ANOVA and Dennett's post hoc test where appropriate. […] IC50 values were determined by nonlinear regression. All statistical analyses were carried out using GraphPad Prism 8 software. A p-value of less than or equal 0.05 was considered significant.

female Wistar Han rats = test: 4-day oral gavage toxicity study in female rats; conditions: 4 days; for Compound-related effects in hematology or coagulation test results / Compound-related mortality, clinical observations, body weight effects, or changes in food consumption: 100 or 300 mg/kg/day oral gavage once daily; for Compound-related macroscopic observations: 100 or 300 mg/kg/day
[2] = Synthesis of CoA derivatives in rat liver microsomes (LCMS detection); assay type: in vitro ADME; conditions: 1 mM substrate, 30 min sample
Method: Reaction products were eluted using the gradient shown below: […]
Formation and detection of the Co-A derivatives of Compounds 1-32, 1-61, I-1 or III-1 in rat liver microsomes: 1 mM of each compound (Compounds I-32, I-61, I-1 or III-1) or palmitic acid (control) were used as substrate in the rat microsomal preparation for 0 and 30 min and extracted as described above. […] Further confirmation was obtained by exposing the compound to a collision energy causing the characteristic neutral loss of 3′-phosphonucleoside diphosphate (507 Da) producing the fragment ion 499.3 m/z. There was no evidence of the CoA derivative in the time 0 min sample.

[3] = test system: human hematopoietic stem and progenitor cells; test: Megakaryopoiesis and platelet production in cultured human hematopoietic stem and progenitor cells; assay type: cell-based; conditions: for Inhibition of megakaryocyte/platelet parameters after addition on day 6 of culture: 30 μM added on day 6; for Inhibition of megakaryopoiesis or platelet production (overall): 30 μM, cultured human HSPC; for CD41a+ mean fluorescence intensity (MFI), normalized / Normalized cell size (CD41a+) / CD41a CD42b+ counts (mature megakaryocytes), normalized to reference media control / CD41a+ cells (megakaryocytes), normalized to reference media control / Platelet counts, normalized to reference media control: added day 0, 8 days culture, I-32 and I-1 30 μM, ABT-737 6 μmol; for CD41a CD42b+ counts (mature megakaryocytes), normalized to reference media control / CD41a+ cells (megakaryocytes), normalized to reference media control / Platelet counts, normalized to reference media control: average±SD
Method: Materials and Methods. Hematopoietic stem and progenitor cells, identified as viable CD45+ CD34+ cells, were isolated from peripheral blood of healthy donors by a method known in the art (see Ivetic N, Nazi I, Karim N et al. Producing megakaryocytes from a human peripheral blood source. Transfusion 2016; 56:1066-74). These isolated cells were then analyzed for purity before being expanded for four days using a commercial supplement to increase their cell population. After expansion, the cells were analyzed for purity, washed, and stimulated with a saturating concentration of thrombopoietin (20 ng/mL) and stem cell factor (50 ng/mL) to begin megakaryopoiesis. Compound I-32 and Compound I-1 were added at this timepoint at a concentration of 30 μM. The cells were then cultured for 8 days to develop into megakaryocytes and analyzed via flow cytometry to assess their number, maturity, and platelet count as defined by CD41a, CD42b and Calcein-AM expression. In addition, Compound I-32 and Compound I-1 were added to cells during the later stages of development (day 6) to assess their impact on maturation. ABT-737 (6 μmol) was used as a positive control and a DMSO vehicle control (<0.15% v/v) was the negative control. All counts are normalized to a media control (PBS) as a reference for basic cell growth.
Statistical analysis. Statistical analyses were carried out by comparing effects on measured parameters in comparison to vehicle control. A value of […] (One-way ANOVA multiple comparisons) was considered as significant.
Two isolations were performed from two healthy donors (2 males) and used to assess the impacts of Compound I-32 and Compound I-1. For one of the isolations, enough expanded hematopoietic stem and progenitor cells (HSPC) (Experiment 1) were obtained so that the addition of the compounds on day 6 was also performed along with the initial experiment. For the other experiment (Experiment 2) only an 8-day incubation was performed.
All results were normalized to a reference media (PBS) and Compound I-32 and Compound I-1 were compared to a vehicle control. Reference compound ABT-737 is a known BCL-2 inhibitor and was used a positive control. Results in FIGS. 25A-25J are the summary of a single experiments conducted in triplicates. No statistical inhibition was detected for Compound I-32 or Compound I-1 (p>0.05 one-way ANOVA).

ERK7/MAPK15, sequence (Q8TD08 whole entry): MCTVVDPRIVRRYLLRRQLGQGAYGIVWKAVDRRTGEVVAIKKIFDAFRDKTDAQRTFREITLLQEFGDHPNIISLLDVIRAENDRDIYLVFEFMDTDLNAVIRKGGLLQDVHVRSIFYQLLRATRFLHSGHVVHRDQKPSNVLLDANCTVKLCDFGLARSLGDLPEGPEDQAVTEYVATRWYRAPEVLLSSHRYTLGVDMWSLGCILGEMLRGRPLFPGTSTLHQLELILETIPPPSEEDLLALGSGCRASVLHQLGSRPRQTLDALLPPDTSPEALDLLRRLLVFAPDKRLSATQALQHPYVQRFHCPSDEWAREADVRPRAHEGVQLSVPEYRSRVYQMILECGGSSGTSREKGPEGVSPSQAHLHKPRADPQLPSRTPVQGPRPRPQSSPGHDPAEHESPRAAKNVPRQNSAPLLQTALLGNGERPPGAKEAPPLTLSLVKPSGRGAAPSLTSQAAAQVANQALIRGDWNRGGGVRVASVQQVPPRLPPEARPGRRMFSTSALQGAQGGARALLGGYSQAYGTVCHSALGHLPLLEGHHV

SMILES: CC(C)(CCCCc1ccc(CCCCC(C)(C)C(=O)O)cc1)C(=O)O [Compound I-1, 6-[4-(5-carboxy-5-methylhexyl)-phenyl]-2,2-dimethylhexanoic acid]
- % Enzyme Activity (relative to DMSO controls) (ERK7/MAPK15): 100.06%
- % Enzyme Activity (relative to DMSO controls) (PIM3): 83%
- % change from control at 100 μM ± SEM(n) [1]: −84 ± 1.0 (n = 6) %
- Adversity of the effects at this dose (female Wistar Han rats; 100 mg/kg/day): nonadverse
- Albumin:globulin ratio (clinical chemistry) (female Wistar Han rats; 100 mg/kg/day): minimally higher
- Globulin concentration (clinical chemistry) (female Wistar Han rats; 100 mg/kg/day): minimally lower
- Adversity of the effects at this dose (female Wistar Han rats; 300 mg/kg/day): adverse
- Albumin:globulin ratio (clinical chemistry) (female Wistar Han rats; 300 mg/kg/day): minimally higher
- Globulin concentration (clinical chemistry) (female Wistar Han rats; 300 mg/kg/day): minimally lower
- Kidney microscopic findings (female Wistar Han rats; 300 mg/kg/day): tubular degeneration/necrosis, tubular regeneration, and increased mitoses
- Compound-related effects in hematology or coagulation test results (female Wistar Han rats): No
- Compound-related mortality, clinical observations, body weight effects, or changes in food consumption (female Wistar Han rats): No
- Compound-related macroscopic observations (female Wistar Han rats): No
- Liver microscopic findings (female Wistar Han rats; >100 mg/kg/day (so in the source)): increase in mitoses in hepatocytes
- Formation of the CoA derivative (LCMS detection, fragmentation confirmation) [2]: detected
- Inhibition of megakaryocyte/platelet parameters after addition on day 6 of culture [3]: no inhibition detected
- Inhibition of megakaryopoiesis or platelet production (overall) [3]: do not significantly affect; also recorded: do not inhibit
- CD41a+ mean fluorescence intensity (MFI), normalized [3]: 109±10%
- Normalized cell size (CD41a+) [3]: 98±3%
- CD41a CD42b+ counts (mature megakaryocytes), normalized to reference media control [3]: 97±9%
- CD41a+ cells (megakaryocytes), normalized to reference media control [3]: 94±2%
- Platelet counts, normalized to reference media control [3]: 94±12%

SMILES: CC(C)(CCCCc1cccc(CCCCC(C)(C)C(=O)O)c1)C(=O)O [Compound I-32, 6-[3-(5-carboxy-5-methylhexyl)-phenyl]-2,2-dimethylhexanoic acid]
- % Enzyme Activity (relative to DMSO controls) (ERK7/MAPK15): 102.21%
- % Enzyme Activity (relative to DMSO controls) (PIM3): 86.73%
- % change from control at 100 μM ± SEM(n) [1]: −82 ± 2.8 (n = 6) %
- Adversity of the effects at this dose (female Wistar Han rats; 300 mg/kg/day): nonadverse
- Albumin:globulin ratio (clinical chemistry) (female Wistar Han rats; 300 mg/kg/day): minimally higher
- Globulin concentration (clinical chemistry) (female Wistar Han rats; 300 mg/kg/day): minimally lower
- Liver microscopic findings (female Wistar Han rats; 300 mg/kg/day): increase in mitoses in hepatocytes; also recorded: periportal hepatocyte vacuolation
- Serum urea nitrogen concentration (female Wistar Han rats; 300 mg/kg/day, considered potentially compound-related): Minimally lower
- Compound-related effects in hematology or coagulation test results (female Wistar Han rats): No
- Compound-related mortality, clinical observations, body weight effects, or changes in food consumption (female Wistar Han rats): No
- Compound-related macroscopic observations (female Wistar Han rats): No
- Formation of the CoA derivative (LCMS detection, fragmentation confirmation) [2]: detected
- Inhibition of megakaryocyte/platelet parameters after addition on day 6 of culture [3]: no inhibition detected
- Inhibition of megakaryopoiesis or platelet production (overall) [3]: do not significantly affect; also recorded: do not inhibit
- CD41a+ mean fluorescence intensity (MFI), normalized [3]: 110±11%
- Normalized cell size (CD41a+) [3]: 94±3%
- CD41a CD42b+ counts (mature megakaryocytes), normalized to reference media control [3]: 106±17%
- CD41a+ cells (megakaryocytes), normalized to reference media control [3]: 98±3%
- Platelet counts, normalized to reference media control [3]: 134±34%
